From US20080268024A1, “Compositions for Oral and/or Topical Administration” (priority 2004, published 2008)

Assays:
Bifidobacterium = assay: Stimulation of growth: enumeration of Bifidobacterium in vitro in human fecal homogenate culture; format: cell-based, Bifidobacterium spp; details: 1% test substance or mixture, human fecal homogenate in diluted WC broth, incubated up to 24 hours, control 1.0 × 10^6
Procedure: (§1) The stimulation of growth of micro-organisms has been studied by enumerating bifidobacterium and lactobacilli in vitro in the presence of various test substances:
(§2) Aliquots (1 mL) of human fecal homogenates (10 g per 100 mL diluent) were added to diluted WC broth (diluted 50:50 with 0.05M phosphate buffer) to which were added the test mixtures and a lactobacillus or bifidobacterium strain. For each of the combinations, parallel tubes were prepared with one set being inoculated with Bifidobacterium spp or Lactobacillus spp. All mixtures were then incubated for up to 24 hours and bacterial numbers determined. The results are presented in Tables 1 and 2 (amount of extract calculated on active content): […]

Lactobacterium = assay: Stimulation of growth: enumeration of lactobacilli in vitro in human fecal homogenate culture; format: cell-based, Lactobacillus spp; details: 1% test substance or mixture, human fecal homogenate in diluted WC broth, incubated up to 24 hours, control 2.8 × 10^5
Procedure: as §1, §2

Compound	Bacterial numbers CFU/ml (Bifidobacterium) [× × 10^7 CFU/ml]	Bacterial numbers CFU/ml (Lactobacterium) [× × 10^6 CFU/ml]
OC[C@H]1O[C@@H](O[C@H]2[C@H](O)[C@@H](O)[C@@H](O[C@]3(CO)O[C@H](CO)[C@@H](O)[C@@H]3O)O[C@@H]2CO)[C@H](O)[C@@H](O)[C@H]1O [C2, Lactosucrose]	1.1	1.1
Lactolin [C3]	1.6	1.5
